Strand notation (5' to 3'): a small letter for the sugar, then the base; units joined by * are phosphorothioate-linked, units joined directly phosphodiester-linked; [ ] holds rarer units or linkages, { } end groups; capitals alone tell only the bases. e = 2'-O-(2-methoxyethyl) (MOE); k = constrained ethyl (cEt); [5mC] = 5-methylcytosine; d = 2'-deoxy (DNA)
What was measured:
human PKK mRNA [1] = experiment: Dose-dependent antisense inhibition of human PKK in HepaRG cells, 0.11-3.00 uM (Example 6); assay type: cell-based; details: for IC50: 0.11-3.00 μM; for percent inhibition of PKK mRNA, 0.11 μM / percent inhibition of PKK mRNA, 0.33 μM / percent inhibition of PKK mRNA, 3.00 μM / percent inhibition of PKK mRNA, 1.00 μM: electroporation, approx. 16 hours, relative to untreated control cells
Description: Cells were plated at a density of 20,000 cells per well and transfected using electroporation with 0.11 μM, 0.33 μM, 1.00 μM, and 3.00 μM concentrations of antisense oligonucleotide. After a treatment period of approximately 16 hours, RNA was isolated from the cells and PKK mRNA levels were measured by quantitative real-time PCR. Human PKK primer probe set RTS3454 was used to measure mRNA levels. PKK mRNA levels were adjusted according to total RNA content, as measured by RIBOGREEN®. The antisense oligonucleotides were tested in a series of experiments that had similar culture conditions.
The half maximal inhibitory concentration (IC50) of each oligonucleotide is also presented.

human PKK mRNA [2] = experiment: Antisense inhibition of human PKK mRNA in HepaRG cells, 1,000 nM, MOE/deoxy/cEt oligonucleotides (Example 3); assay type: cell-based
Outline: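 HepaRG cells at 20,000 per well electroporated with 1,000 nM 16-mer MOE/cEt/deoxy gapmers (phosphorothioate, 5-methylcytosine). After about 24 h, PKK mRNA measured by qRT-PCR with primer probe set RTS3454, normalized to RIBOGREEN total RNA. Reported as percent inhibition versus untreated cells.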

[3] = HepaRG cells, electroporation with 1,000 nM antisense oligonucleotide, approximately 24 hours, primer probe set RTS3454, relative to untreated control cells, experiment of Table 24

| Substance | IC50 (human PKK mRNA [1]) | percent inhibition of PKK mRNA, 0.11 μM (human PKK mRNA [1]) | percent inhibition of PKK mRNA, 0.33 μM (human PKK mRNA [1]) | percent inhibition of PKK mRNA, 3.00 μM (human PKK mRNA [1]) | % inhibition (human PKK mRNA [2]; [3]) | percent inhibition of PKK mRNA, 1.00 μM (human PKK mRNA [1]) | % inhibition (human PKK mRNA [2]; Table 20, HepaRG cells, electroporation with 1,000 nM antisense oligonucleotide, approximately 24 hours, PKK mRNA by RT-PCR (RTS3454), relative to untreated control cells) | % inhibition (human PKK mRNA [2]; Table 22 experiment, HepaRG cells, electroporation with 1,000 nM antisense oligonucleotide, approx. 24 hours, PKK mRNA by RT-PCR (RTS3454), relative to untreated control cells) | % inhibition (human PKK mRNA [2]; HepaRG cells, electroporation with 1,000 nM antisense oligonucleotide, approximately 24 hours, primer probe set RTS3454, relative to untreated control cells, experiment of Table 23) | % inhibition (human PKK mRNA [2]; HepaRG cells, electroporation with 1,000 nM antisense oligonucleotide, approx. 24 hours, PKK mRNA by RT-PCR (RTS3454), relative to untreated control cells, Table 25 experiment) | % inhibition (human PKK mRNA [2]; Table 30, human PKK mRNA, HepaRG cells, 1,000 nM antisense oligonucleotide) | % inhibition (human PKK mRNA [2]; PKK mRNA, HepaRG cells, 1,000 nM antisense oligonucleotide, Table 31) | % inhibition (human PKK mRNA [2]; Table 21 experiment, HepaRG cells, electroporation with 1,000 nM antisense oligonucleotide, approx. 24 hours, PKK mRNA by RT-PCR (RTS3454), relative to untreated control cells) |
| --- | --- | --- | --- | --- | --- | --- | --- | --- | --- | --- | --- | --- | --- |
| 547997 (antisense eT*eT*kG*dT*dG*dT*d[5mC]*d[5mC]*d[5mC]*dA*dT*dA*d[5mC]*kG*k[5mC]*eA) [compound 547997] | 200 nM | 39% | 68% | 82% | 89% | – | – | – | – | – | – | – | – |
| 547861 (antisense eA*e[5mC]*kT*d[5mC]*d[5mC]*dT*d[5mC]*dT*d[5mC]*dA*dT*dA*dT*k[5mC]*kA*eA) [compound 547861] | 500 nM | 7% | 40% | 84% | – | 75% | 0% | 57% | – | – | – | – | – |
| 547947 (eG*eG*kA*dA*d[5mC]*dT*dT*dG*dG*dT*dG*dT*dG*k[5mC]*k[5mC]*eA; antisense) [compound 547947] | 300 nM | 24% | 58% | 93% | – | 81% | – | – | 80% | – | – | – | – |
| 548217 (e[5mC]*eT*kG*dT*dG*d[5mC]*dA*dT*dA*dG*dA*d[5mC]*d[5mC]*k[5mC]*k[5mC]*eA; antisense) [compound 548217] | 900 nM | 22% | 24% | 71% | – | 54% | – | – | – | 69% | – | – | – |
| 548043 (eA*eT*kT*dT*dG*dT*dG*dA*dG*dA*dA*dA*dG*kG*kT*eG; antisense) [compound 548043] | 300 nM | 14% | 60% | 92% | 76% | 90% | – | – | – | – | – | – | – |
| 548424 (antisense e[5mC]*eA*kG*dT*dA*dT*d[5mC]*dA*d[5mC]*dT*dG*dT*d[5mC]*k[5mC]*kT*eA) [compound 548424] | 300 nM | 17% | 67% | 72% | – | 86% | – | – | – | – | 90% | – | – |
| 548668 (antisense eG*eG*kG*dA*dG*d[5mC]*dT*dT*dT*d[5mC]*dA*dT*dG*kG*k[5mC]*eT) [compound 548668] | 700 nM | 10% | 30% | 84% | – | 61% | – | – | – | – | – | 68% | – |
| 548061 (eG*e[5mC]*kT*dT*dG*dT*dG*dT*d[5mC]*dA*d[5mC]*d[5mC]*dT*kT*kT*eG; antisense) [compound 548061] | 400 nM | 26% | 61% | – | 86% | 59% | – | – | – | – | – | – | – |
| 547808 (e[5mC]*eA*kT*d[5mC]*dT*dG*dG*d[5mC]*dA*dG*dT*dA*dT*kT*kG*eG; antisense) [compound 547808] | 1100 nM | 19% | 22% | 71% | – | 48% | – | – | – | – | – | – | 56% |
